From patent publication US20220087987A1, “A METHOD FOR TREATING SWI/SNF COMPLEX-DEFICIENT CANCERS COMPRISING GLUTATHIONE (GSH) METABOLIC PATHWAY INHIBITOR” (National Cancer Center, priority 2018, published 2022)
Where two headings read alike, the source gives them in different places. Peptide text beside a SMILES is read from it. * marks the point of attachment. Cbz = O=C(OCc1ccccc1)*; CH2Cl = ClC*; CH2F = FC*

What was measured:
ARID1A-WT HCT116 cells = assay: Drug library screen, cell viability (CellTiter-Glo); assay type: cell-based, human; set-up: key to Cell viability, WT: % viability relative to DMSO solvent-treated cells
Experimental: (§1) ARID1A-WT and ARID1A-KO HCT116 cancer cells were used for screening assays. […] Cell viability was assessed after 5 days using the CellTiter-Glo Luminescent Cell Viability Assay (Promega). Luminescence was measured using an Envision Multi-label plate reader (PerkinElmer). The luminescence reading was used to determine the cell viability relative to that of cells treated with solvent (DMSO). Candidate compounds were considered if viability of ARID1A-KO cells was less than […] was more than 80%.

ARID1A-KO HCT116 cells = assay: as above; assay type: cell-based, human; set-up: key to Cell viability, KO: % viability relative to DMSO solvent-treated cells
Experimental: as §1

[1] = HCT116 ARID1A-WT, 10 μM for 5 days, relative to cells treated with solvent (DMSO)
[2] = HCT116 ARID1A-KO, 10 μM for 5 days, relative to cells treated with solvent (DMSO)

Compound	Cell viability, WT (ARID1A-WT HCT116 cells; [1])	Cell viability, KO (ARID1A-KO HCT116 cells; [2])	Cell viability, WT (ARID1A-WT HCT116 cells)	Cell viability, KO (ARID1A-KO HCT116 cells)
COC(=O)C[C@H](NC(=O)[C@H](C)NC(=O)[C@@H](NC(=O)OCc1ccccc1)C(C)C)C(=O)CF [Z-VAD-FMK] (Cbz-Val-Ala-Asp(OMe)-CH2F)	177.3841	128.7264	–	–
CCOC(=O)C1=C(N)Oc2ccc(Br)cc2C1C(C#N)C(=O)OCC (centres unmarked) [HA 14-1]	114.2556	119.1814	–	–
C=C1C(=O)OC(CCCCCCCC)C1C(=O)O (centres unmarked) [C75]	103.4877	93.63	–	–
Cytostatin	10.14	7.493	–	–
O=C1Nc2ccc3ncsc3c2/C1=C/c1cnc[nH]1 [PKR inhibitor]	–	–	8.714	16.84
Cc1[nH]c(/C=C2\C(=O)Nc3ccc(S(=O)(=O)N(C)c4cccc(Cl)c4)cc32)c(C)c1C(=O)N1CCN(C)CC1 [SU11274]	71.94	82.98	–	–
O=C(Cc1ccccc1)Nc1c2c(nc3ccccc13)N(Cc1ccccc1)CC2 [PGP-4008]	106.0362	117.1066	–	–
indirubin-3′-monoxime	105.9954	124.9767	–	–
Nc1ncn([C@@H]2O[C@H](CO)[C@@H](O)[C@H]2O)c(=O)n1 [Azacytidine]	86.54	43.39	–	–
Cc1cccc(-c2[nH]ncc2-c2ccc3ncccc3n2)n1 [TGF-b RI kinase inhibitor II]	90.9	104.5326	–	–
O=C(Nc1cccc(NC(=O)c2cccc(O)c2O)c1)c1cccc(O)c1O [MST-312]	7.363	7.703	–	–
CCN(CC)CCNC(=O)c1c(C)[nH]c(/C=C2\C(=O)Nc3ccc(Cl)cc32)c1C [SU11652]	4.735	8.987	–	–
Cn1cc(/C=C2\C(=O)Nc3ccc(S(N)(=O)=O)cc32)c2ccccc21 [Syk inhibitor]	–	–	58.62	91.09
CC(C)C[C@H](NC(=O)CNC(=O)OCc1ccccc1)C(=O)N[C@@H](Cc1ccccc1)C(=O)CCl [Z-GLF-CMK] (Cbz-Gly-Leu-Phe-CH2Cl)	4.255	4.8907	–	–
CC(C)(O)/C=C/C(=O)[C@](C)(O)[C@H]1[C@H](O)C[C@@]2(C)[C@@H]3CC=C4[C@@H](C=C(O)C(=O)C4(C)C)[C@]3(C)C(=O)C[C@]12C [Cucurbitacin I]	13.95	15.25	–	–
CC1=NN(c2ccc(C(=O)O)cc2)C(=O)/C1=C\c1ccc(-c2cc(C)c(C)cc2[N+](=O)[O-])o1 [C646]	–	–	93.09	115.173
COc1ccc(OC)c2c(=S)c3ccccc3[nH]c12 [NSC625987]	136.0173	161.7582	–	–
COc1cc(/C=C(\C#N)C(N)=O)cc(CSc2nc3ccccc3s2)c1O [AG825]	85.83	80.86	–	–
COc1cc2nccc(Oc3ccc(NC(=S)NC(=O)c4ccccc4C)cc3)c2cc1OC	99	107.0846	–	–
Cc1nc(N)sc1-c1ccnc(Nc2cccc([N+](=O)[O-])c2)n1 [Cdk 2/9 inhibitor]	6.309	14.26	–	–

Compound	Cell viability, WT (ARID1A-WT HCT116 cells; [1])	Cell viability, KO (ARID1A-KO HCT116 cells; [2])	Cell viability, WT (ARID1A-WT HCT116 cells)	Cell viability, KO (ARID1A-KO HCT116 cells)
O=c1cc(-c2cccc3c2Sc2ccccc2S3)oc(N2CCOCC2)c1 [ATM kinase inhibitor]	70.42	83.21	–	–
CCOC(=O)c1c(C)[nH]c(/C=C2\C(=O)Nc3ccccc32)c1C [VEGF recptor 2 kinase inhibitor I]	106.2493	109.4563	–	–
CCOc1nc(NC(=O)Cc2cc(OC)ccc2OC)cc(N)c1C#N [JNK inhibitor VIII]	127.134	189.4425	–	–
CCCNC(=O)[C@H]1O[C@@H]1C(=O)N[C@H](C(=O)N1CCC[C@H]1C(=O)O)[C@@H](C)CC [CA-074]	107.6022	115.0436	–	–
O=C(NC(NC(=S)Nc1ccc(F)c([N+](=O)[O-])c1)C(Cl)(Cl)Cl)C(c1ccccc1)c1ccccc1 (centres unmarked) [ATM/ATR kinase inhibitor]	59.07	76.77	–	–
COc1cc2ncc(-c3ccccc3)nc2cc1OC [AG1296]	190.9406	144.7899	–	–
Cc1cc(C=C2C(=O)C=CC2=O)cc(C)c1O [TX-1918]	117.0659	173.7673	–	–
Nc1ncnc2c1nc(Sc1ccc(Cl)cc1)n2[C@@H]1O[C@@H]2COP(O)(=S)O[C@H]2[C@H]1O (some centres unmarked) [Rp-8-CPT-cOMPS]	110.9572	135.7084	–	–
CCCCN1C(=O)C2Cc3c([nH]c4ccccc34)C(c3cccc(O)c3)N2C1=O (centres unmarked) [HR22C16]	12.52	17.39	–	–
Nc1cccc(-c2cc3c(Oc4cccc(O)c4)ncnc3[nH]2)c1 [TWS119]	–	–	30.07	23.39
C[C@H](NC(=O)Cc1cc(F)cc(F)c1)C(=O)N[C@H](C(=O)OC(C)(C)C)c1ccccc1 [DAPT]	93.12	103.8309	–	–
O=C1Cc2c([nH]c3ccc(Br)cc23)-c2ncccc2N1 [1-Azakenpaullone]	95.89	114.0704	–	–
N#C/C(=C\c1ccc2oc(=O)[nH]c2c1)C(=O)c1ccc(O)c(O)c1 [AGL 2263]	148.6873	172.9001	–	–
COc1ccc2c(c1)c1c3c(c4c5ccccc5n(C)c4c1n2CC(O)CN(C)C)C(=O)NC3=O (centres unmarked) [Go7874]	3.01	4.256	–	–
Cl.Cl.Cl.Cl.Cl.Cl.Cl.Cl.c1cc(CN2CCCNCCNCCCNCC2)ccc1CN1CCCNCCNCCCNCC1 [AMD3100 octahydrochloride]	–	–	102.6908	102.0251
O=S(=O)(O)c1cc(N=C=S)ccc1C=Cc1ccc(N=C=S)cc1S(=O)(=O)O [DIDS]	97.04	107.2053	–	–
CCCCCC#CCC#CCC#CCC#CCCCC(=O)O [ETYA]	95.86	110.2846	–	–
Nc1nc(Nc2ccc(S(N)(=O)=O)cc2)nn1C(=S)Nc1c(F)cccc1F [Cdk½ inhibitor III]	8.59	18.12	–	–
NCCCC(N)(C(=O)O)C(F)F (centres unmarked) [DFMO]	98.8	117.8191	–	–
COc1ccc(S(=O)(=O)N(CCO)c2ccccc2CN(C)C/C=C/c2ccc(Cl)cc2)cc1 [KN93]	20.89	23.47	–	–

Compound	Cell viability, WT (ARID1A-WT HCT116 cells; [1])	Cell viability, KO (ARID1A-KO HCT116 cells; [2])	Cell viability, WT (ARID1A-WT HCT116 cells)	Cell viability, KO (ARID1A-KO HCT116 cells)
COC(=O)c1ccc(NCc2cc(O)ccc2O)cc1 [AG957]	23.69	17.53	–	–
C[S+]([O-])c1ccc(-c2nc(-c3ccc(F)cc3)c(-c3ccncc3)[nH]2)cc1 (centres unmarked) [SB 203580]	163.1226	176.0802	–	–
CO/C1=C\C(C)=C\[C@@H](C)[C@@H](O)[C@@H](C)C/C(C)=C/C=C/[C@H](OC)[C@@H]([C@@H](C)[C@@H](O)[C@H](C)[C@@]2(O)C[C@@H](O)[C@H](C)[C@@H](C(C)C)O2)OC1=O [Bafilomycin AI]	4.059	4.345	–	–
O=[N+]([O-])c1ccc(-c2nc(-c3ccc(F)cc3)c(-c3ccncc3)[nH]2)cc1 [PD169316]	161.5329	151.5532	–	–
C1=Cc2nc1cc1ccc([nH]1)c(-c1ccccc1)c1nc(cc3ccc([nH]3)c2-c2ccccc2)C=C1 [5,15-DPP]	90.1195	98.73	–	–
CN(C)CC(=O)Nc1ccc2[nH]c(=O)c3ccccc3c2c1 [PJ-34]	–	–	18.28	15.94
CC(/C=C/C(=O)NO)=C\[C@@H](C)C(=O)c1ccc(N(C)C)cc1 [Trichostatin A]	6.352	5	–	–
O=C1NC(=O)c2c1c1c3ccccc3n3c1c1c2c2ccccc2n1C1CCC3O1 [SB 218078]	101.994	109.2807	–	–
CC(C)n1nc(-c2cc3cc(O)ccc3[nH]2)c2c(N)ncnc21 [Torkinib]	8.777	9.988	–	–
NS(=O)(=O)c1ccc(Nc2nc(OCC3CCCCC3)c3[nH]cnc3n2)cc1 [NU6102]	112.51	124.8924	–	–
CCN(CC)CCCCNc1ncc2cc(-c3cc(OC)cc(OC)c3)c(NC(=O)NC(C)(C)C)nc2n1 [PD173074]	8.446	7.568	–	–
O=C(Nc1nc2ccccc2n1CCN1CCOCC1)c1cccc([N+](=O)[O-])c1 [IRAK-¼ inhibitor]	142.234	160.7174	–	–
O=CN1CCN(c2ccc(/C=C3\C(=O)Nc4ccccc43)cc2)CC1 [SU4984]	129.369	172.2779	–	–
O=C1C(Nc2ccccc2)=CC(=O)c2ncccc21 [LY 83583]	4.357	4.788	–	–
CNC(=N)NCCC[C@H](N)C(=O)O [L-NMMA]	167.9828	116.4094	–	–
Antimycin A1	4.328	7.111	–	–
NC(=O)C1CCCc2c1[nH]c1ccc(Cl)cc21 (centres unmarked) [SIRT1 inhibitor III]	92.15	98.94	–	–
COc1cc2c(cc1OC)-c1[nH]nc(Nc3cccc(F)c3)c1C2	5.928	12.89	–	–
